One data set concerns MCF7. Briefly: Antiproliferative activity against human MCF7 cells assessed as reduction in cell viability after 72 hrs by MTT assay. It counts as functional, cell-based. Background: Tetrazolium assays rely on reduction of a dye to a coloured formazan, in cell work by metabolically active cells.
Data set [1] relates to MCF-10A. Briefly: Cytotoxicity against human MCF10A assessed as reduction in cell viability at 25 uM after 72 hrs by MTT assay. The format is cell-based.
Data set [2] deals with MDA-MB-231. Briefly: Down regulation of slug levels in human MDA-MB-231 cells up to 50 uM measured after 48 hrs by Westernblot analysis. The format is functional, cell-based.
Data set [3] deals with MDA-MB-231. Briefly: Downregulation of cyclin-D1 expression in human MDA-MB-231 cells up to 50 uM measured after 48 hrs by Westernblot analysis. It counts as functional, cell-based.
For data set [4], the system named is MCF-10A. The experiment in a line: Cytotoxicity against human MCF10A assessed as reduction in cell viability up to 12 uM after 72 hrs by MTT assay. The format is cell-based.
Data set [5] has as its target Transcription factor p65 (Homo sapiens) (UniProt Q04206). Briefly: Down regulation of NFkappaB p65 phosphorylation in human MDA-MB-231 cells up to 50 uM measured after 48 hrs by Western blot analysis. It counts as cell-based. In general terms: A western blot detects proteins with antibodies after separation by electrophoresis.
The test system of data set [6] is MDA-MB-231. The experiment in a line: Effect on EGFR expression in human MDA-MB-231 cells up to 50 uM measured after 48 hrs by Westernblot analysis. It counts as functional, cell-based.
Data set [7] addresses Serine/threonine-protein kinase mTOR (Homo sapiens) (UniProt P42345). Briefly: Inhibition of mTOR phosphorylation in human MDA-MB-231 cells up to 50 uM measured after 48 hrs by Western blot analysis. The format is cell-based.
In data set [8] the test system is MDA-MB-231. The experiment in a line: Antiproliferative activity against human MDA-MB-231 cells assessed as reduction in cell viability after 72 hrs by MTT assay. The format is functional, cell-based. As to conditions: MDA-MB-231, 72 h.
The nature of data set [9]: Effect on RAS/RAF/MEK/ERK pathway in human MDA-MB-231 cells assessed as increase in ERK1/2 phosphorylation up to 50 uM measured after 48 hrs by Western blot analysis. It counts as cell-based.
Setting [10] is: Homo sapiens, MCF7, 72 h, read-out: IC50.

Molecules are shown by their SMILES. The source made the active and inactive calls. The rule behind the calls is not given here.

Transcription factor p65 (Homo sapiens), sequence (Q04206 whole entry): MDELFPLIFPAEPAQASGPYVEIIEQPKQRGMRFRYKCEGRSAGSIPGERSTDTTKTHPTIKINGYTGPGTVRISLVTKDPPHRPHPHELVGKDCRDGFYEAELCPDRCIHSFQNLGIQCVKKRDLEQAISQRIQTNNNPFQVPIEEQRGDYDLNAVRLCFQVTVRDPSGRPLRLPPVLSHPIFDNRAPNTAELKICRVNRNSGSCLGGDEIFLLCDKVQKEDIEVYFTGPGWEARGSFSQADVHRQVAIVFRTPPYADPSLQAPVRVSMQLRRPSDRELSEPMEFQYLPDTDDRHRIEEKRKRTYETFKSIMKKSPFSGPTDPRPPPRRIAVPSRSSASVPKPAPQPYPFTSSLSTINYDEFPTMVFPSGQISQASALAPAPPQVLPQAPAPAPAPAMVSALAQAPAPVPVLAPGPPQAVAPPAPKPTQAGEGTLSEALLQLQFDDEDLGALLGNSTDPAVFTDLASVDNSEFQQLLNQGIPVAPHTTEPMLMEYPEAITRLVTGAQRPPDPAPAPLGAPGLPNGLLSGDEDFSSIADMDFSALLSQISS

Regarding `CCO/C(C[C@]1(O)CC[C@H]2[C@@H]3CCc4cc(OC)ccc4[C@H]3CC[C@@]21C)=N/S(=O)(=O)c1ccc(C)cc1`, in the data set with MCF7 (setting [10]), the IC50 (usually the point on the concentration scale where inhibition reaches its midpoint) was 11.8 µM.
Same read-out and setting: to `CCO/C(C[C@]1(O)CC[C@H]2[C@@H]3CCc4cc(OC(C)=O)ccc4[C@H]3CC[C@@]21C)=N/S(=O)(=O)c1ccc(C)cc1` belongs 12.2 µM; to `CCCCO/C(C[C@]1(OC)CC[C@H]2[C@@H]3CCc4cc(OC)ccc4[C@H]3CC[C@@]21C)=N/S(=O)(=O)c1ccc(C)cc1`, 10.5 µM.
On the same count and under the same terms, next, `COc1ccc2c(c1)CC[C@@H]1[C@@H]2CC[C@@]2(C)[C@H]1CC[C@]2(C/C(=N\S(=O)(=O)c1ccc(C)cc1)OCC(C)C)OC`: 8.5 µM; `CCO/C(C[C@]1(O)CC[C@H]2[C@@H]3CCc4cc(O)ccc4[C@H]3CC[C@@]21C)=N/S(=O)(=O)c1ccc(C)cc1`: 15.3 µM.
For `COc1ccc2c(c1)CC[C@@H]1[C@@H]2CC[C@@]2(C)[C@H]1CC[C@@]2(O)CC(=O)NS(=O)(=O)c1ccc(C)cc1`, the concentration for half-maximal inhibition (IC50) entry with MCF7 (mcf7) is reported as “Not Active”.
Consider `COc1ccc2c(c1)CC[C@@H]1[C@@H]2CC[C@@]2(C)[C@H]1CC[C@]2(C/C(=N\S(=O)(=O)c1ccc(C)cc1)OCC(Cl)(Cl)Cl)OC`, for which the IC50 in the data set on MCF7 (setting [10]) turned out to be 22.2 µM.
On to `CCCO/C(C[C@]1(O)CC[C@H]2[C@@H]3CCc4cc(OC(C)=O)ccc4[C@H]3CC[C@@]21C)=N/S(=O)(=O)c1ccc(C)cc1`, for which, in the data set with MCF7 (setting [10]), the IC50 amounted to 17.9 µM.
Consider `CCCCCCCO/C(C[C@]1(OC)CC[C@H]2[C@@H]3CCc4cc(OC)ccc4[C@H]3CC[C@@]21C)=N/S(=O)(=O)c1ccc(C)cc1`, for which the IC50 result in the data set with MCF7 (mcf7) is given as “Not Active”.
Consider `CCO/C(CC1=CC[C@H]2[C@@H]3CCc4cc(OC(C)=O)ccc4[C@H]3CC[C@]12C)=N/S(=O)(=O)c1ccc(C)cc1`, for which the IC50 in the data set with MCF7 (setting [10]) amounted to 5.6 µM.
On to `CCO/C(C[C@]1(O)CC[C@H]2[C@@H]3CCC4=CC(=O)CC[C@]4(C)[C@H]3CC[C@@]21C)=N/S(=O)(=O)c1ccc(C)cc1`, for which the IC50 with MCF7 (setting [10]) stood at 9.9 µM.
Take `CCCCCCCCCCCCO/C(C[C@]1(OC)CC[C@H]2[C@@H]3CCc4cc(OC)ccc4[C@H]3CC[C@@]21C)=N/S(=O)(=O)c1ccc(C)cc1`: the IC50 result in the data set on MCF7 (mcf7) is recorded as “Not Active”.
Regarding `COc1ccc2c(c1)CC[C@@H]1[C@@H]2CC[C@@]2(C)[C@H]1CC[C@]2(C/C(=N\S(=O)(=O)c1ccc(C)cc1)OCCC(C)C)OC`, the IC50 in the data set with MCF7 (setting [10]) stood at 21.7 µM.
Regarding `CCO/C(CC1=CC[C@H]2[C@@H]3CCc4cc(OC)ccc4[C@H]3CC[C@]12C)=N/S(=O)(=O)c1ccc(C)cc1`, the half-inhibitory concentration (IC50) with MCF7 (setting [10]) came out at 9.5 µM.
Turning to `CCO/C(C[C@]1(O)CC[C@H]2[C@@H]3CCc4cc(OCc5ccccc5)ccc4[C@H]3CC[C@@]21C)=N/S(=O)(=O)c1ccc(C)cc1`, the 50% inhibitory concentration (IC50) result with MCF7 (mcf7) is recorded as “Not Active”.
As to `CCCO/C(C[C@]1(O)CC[C@H]2[C@@H]3CCc4cc(OC)ccc4[C@H]3CC[C@@]21C)=N/S(=O)(=O)c1ccc(C)cc1`, in the data set with MCF7 (setting [10]), the IC50 is 15.5 µM.
On to `CCO/C(C[C@]1(O)CC[C@H]2[C@@H]3CCc4cc(OS(=O)(=O)c5ccc(C)cc5)ccc4[C@H]3CC[C@@]21C)=N/S(=O)(=O)c1ccc(C)cc1`, for which the half-maximal inhibitory concentration (IC50) entry in the data set on MCF7 (mcf7) is “Not Active”.
With `CCO/C(C[C@]1(OC)CC[C@H]2[C@@H]3CCc4cc(OC)ccc4[C@H]3CC[C@@]21C)=N/S(=O)(=O)c1ccc(C)cc1`, in the data set on MCF7 (setting [10]), the half-inhibitory concentration (IC50) is 7 µM.
In the case of `Cc1ccc(S(=O)(=O)NC(=O)C[C@]2(O)CC[C@H]3[C@@H]4CCc5cc(O)ccc5[C@H]4CC[C@@]32C)cc1`, the IC50 result with MCF7 (mcf7) is “Not Active”.
Turning to `CCCO/C(C[C@]1(OC)CC[C@H]2[C@@H]3CCc4cc(OC)ccc4[C@H]3CC[C@@]21C)=N/S(=O)(=O)c1ccc(C)cc1`, the 50% inhibitory concentration (IC50) in the data set with MCF7 (setting [10]) is 4.5 µM.
`COc1ccc2c(c1)CC[C@@H]1[C@@H]2CC[C@@]2(C)[C@H]1CC[C@]2(C/C(=N\S(=O)(=O)c1ccc(C)cc1)OC1CCCCC1)OC`: the IC50 in the data set with MCF7 (setting [10]) turned out to be 20 µM.
`CCCCCCO/C(C[C@]1(OC)CC[C@H]2[C@@H]3CCc4cc(OC)ccc4[C@H]3CC[C@@]21C)=N/S(=O)(=O)c1ccc(C)cc1`: the half-maximal inhibitory concentration (IC50) result with MCF7 (mcf7) is “Not Active”.
As for `COc1ccc2c(c1)CC[C@@H]1[C@@H]2CC[C@@]2(C)[C@H]1CC[C@]2(C/C(=N\S(=O)(=O)c1ccc(C)cc1)OCCCCl)OC`, in the data set with MCF7 (setting [10]), the IC50 was 11.4 µM.
On to `COc1ccc2c(c1)CC[C@@H]1[C@@H]2CC[C@@]2(C)[C@H]1CC[C@]2(C/C(=N\S(=O)(=O)c1ccc(C)cc1)OC(C)C)OC`, for which the Activity entry with MCF-10A [1] is “Toxic”; in the data set on MCF-10A [4] it was “Non-Toxic”. Also, the outcome (in the data set on MDA-MB-231 [2]; in the data set with MDA-MB-231 [3]; in [5]; in [9]) was Active. In the data set on MDA-MB-231 [6], the outcome was inactive. Also, the half-maximal inhibitory concentration (IC50) in the data set on MCF7 (setting [10]) came out at 4.3 µM; with MDA-MB-231 [8], 11.3 µM. In addition, in data set [7], the inhibition result is “inactive”.
As to `CCCO/C(C[C@]1(O)CC[C@H]2[C@@H]3CCC4=CC(=O)CC[C@]4(C)[C@H]3CC[C@@]21C)=N/S(=O)(=O)c1ccc(C)cc1`, the IC50 in the data set with MCF7 (setting [10]) stood at 22.4 µM.
